Results reported in patent publication US8188101B2 (AstraZeneca AB, priority 2008, dated 2012).

These molecules were tested on Aβ42 release (assay: Aβ release in cells stably expressing APPswe, Meso Scale Discovery electrochemiluminescence assay). Conditions: HEK or SH-SY5Y cells stably expressing APPswe, 4-6 hours incubation with test compound.
Format: cell-based, Human
Method: The level of activity of the compounds on Aβ release was tested using the following method:
Compounds were diluted in 100% DMSO and stored at […] prior to use. Human Embryonic Kidney (HEK) or Human Neuroblastoma (SH-SY5Y) cell lines stably expressing APP with the Swedish mutation (APPswe) were cultured using Dulbecco's Modified Eagles medium (DMEM) supplied with […] glucose, Na-pyruvate and GlutaMAX with 10% FBS, 100 U/ml penicillin-streptomycin (PEST) respectively, 1× non-essential amino acids (NEAA), […] Hepes, 100 μg/ml Zeocine. Cells at about 80% confluence were washed with PBS, detached from culture flasks using 1× Trypsin/EDTA diluted in PBS, re-suspended in cell media and plated in 384-well poly-d-lysine coated cell culture plates at about 10000-15000 cells/well, in 25 μL cell media. Optionally, cryo-preserved cells (frozen and stored at −140° C. in 90% cell media and 10% DMSO) were thawed, washed and plated as above. Next the cells were incubated for 15-24 h at 37° C. and 5% CO2, after which cell medium was changed. Fresh medium containing test compound diluted ×200 from prepared compound plate was added to the cells before further incubation for 4-6 hours at 37° C. and 5% CO2. After incubation with test compound the amount of Aβ peptides, including Aβ42, Aβ40, Aβ39, Aβ38 and Aβ37, secreted to the cell medium was analyzed using the electrochemiluminescence assay technology from Meso Scale Discovery Technology, in combination with specific antibodies raised against the different Aβ peptides. Potential cytotoxic effects of the compounds were usually assayed by measuring the ATP content (ViaLight) from cell lysate.

SMILES	pIC50
Cc1nccn1-c1ccc(Nc2nc3c(c(C(C)c4ccccc4)n2)CN(C)CC3)cc1 (single isomer, unassigned) [Example 70, 6-Methyl-N-(4-(2-methyl-1H-imidazol-1-yl)phenyl)-4-(1-phenylethyl)-5,6,7,8-tetrahydropyrido[4,3-d]pyrimidin-2-amine]	6.2
Cc1nccn1-c1ccc(Nc2nc3c(c(C(C)c4ccccc4)n2)CN(C)CC3)cc1 (single isomer, unassigned) [Example 71, 6-Methyl-N-(4-(2-methyl-1H-imidazol-1-yl)phenyl)-4-(1-phenylethyl)-5,6,7,8-tetrahydropyrido[4,3-d]pyrimidin-2-amine]	6.6

Same assay, conditions: Homo sapiens, SH-SY5Y, HEK or SH-SY5Y cells stably expressing APPswe, 4-6 hours incubation with test compound

SMILES	IC50
OCCN(c1ccccc1)c1nc(Nc2ccc(-c3cnco3)cc2)nc2c1CNCC2 [Example 1, 2-((2-(4-(Oxazol-5-yl)phenylamino)-5,6,7,8-tetrahydropyrido[4,3-d]pyrimidin-4-yl)(phenyl)amino)ethanol]	1000 nM
CN1CCc2nc(Nc3ccc(-c4cnco4)cc3)nc(N(CCO)c3ccccc3)c2C1 [Example 2, 2-((6-Methyl-2-(4-(oxazol-5-yl)phenylamino)-5,6,7,8-tetrahydropyrido[4,3-d]pyrimidin-4-yl)(phenyl)amino)ethanol]	398 nM
c1ccc(Nc2nc(Nc3ccc(-c4cnco4)cc3)nc3c2CNCC3)cc1 [Example 3, N2-(4-(Oxazol-5-yl)phenyl)-N4-phenyl-5,6,7,8-tetrahydropyrido[4,3-d]pyrimidine-2,4-diamine]	1000 nM
CN1CCc2nc(Nc3ccc(-c4cnco4)cc3)nc(Nc3ccccc3)c2C1 [Example 4, 6-Methyl-N2-(4-(oxazol-5-yl)phenyl)-N4-phenyl-5,6,7,8-tetrahydropyrido[4,3-d]pyrimidine-2,4-diamine]	316 nM
c1ccc(CNc2nc(Nc3ccc(-c4cnco4)cc3)nc3c2CCNC3)cc1 [Example 5, N4-Benzyl-N2-(4-(oxazol-5-yl)phenyl)-5,6,7,8-tetrahydropyrido[3,4-d]pyrimidine-2,4-diamine]	1000 nM
c1ccc(CNc2nc(Nc3ccc(-c4cnco4)cc3)nc3c2CNCC3)cc1 [Example 6, N4-Benzyl-N2-(4-(oxazol-5-yl)phenyl)-5,6,7,8-tetrahydropyrido[4,3-d]pyrimidine-2,4-diamine]	1260 nM
COc1cc(Nc2nc3c(c(Nc4ccccc4)n2)CNCC3)ccc1-n1cnc(C)c1 [Example 7, N2-(3-Methoxy-4-(4-methyl-1H-imidazol-1-yl)phenyl)-N4-phenyl-5,6,7,8-tetrahydropyrido[4,3-d]pyrimidine-2,4-diamine]	100 nM
COc1cc(Nc2nc3c(c(Nc4ccccc4)n2)CN(CCO)CC3)ccc1-n1cnc(C)c1 [Example 8, 2-(2-(3-Methoxy-4-(4-methyl-1H-imidazol-1-yl)phenylamino)-4-(phenylamino)-7,8-dihydropyrido[4,3-d]pyrimidin-6(5H)-yl)ethanol]	79.4 nM
Cc1nccn1-c1ccc(Nc2nc3c(c(N4c5ccccc5C[C@H]4CO)n2)CN(C)CC3)cc1 [Example 9, (S)-(1-(6-methyl-2-(4-(2-methyl-1H-imidazol-1-yl)phenylamino)-5,6,7,8-tetrahydropyrido[4,3-d]pyrimidin-4-yl)indolin-2-yl)methanol]	1580 nM
Cc1nccn1-c1ccc(Nc2nc3c(c(N[C@@H]4CC5CCC4C5)n2)CN(C)CC3)cc1 (stereo partly drawn) [Example 10, N4-((2R)-bicyclo[2.2.1]heptan-2-yl)-6-methyl-N2-(4-(2-methyl-1H-imidazol-1-yl)phenyl)-5,6,7,8-tetrahydropyrido[4,3-d]pyrimidine-2,4-diamine]	501 nM
Cc1nccn1-c1ccc(Nc2nc3c(c(N(C)C4CCCCC4)n2)CN(C)CC3)cc1 [Example 11, N4-Cyclohexyl-N4,6-dimethyl-N2-(4-(2-methyl-1H-imidazol-1-yl)phenyl)-5,6,7,8-tetrahydropyrido[4,3-d]pyrimidine-2,4-diamine]	398 nM
c1ccc(COc2nc(Nc3ccc(-c4cnco4)cc3)nc3c2CNCC3)cc1 [Example 12, 4-(Benzyloxy)-N-(4-(oxazol-5-yl)phenyl)-5,6,7,8-tetrahydropyrido[4,3-d]pyrimidin-2-amine]	3980 nM
Cc1nccn1-c1ccc(Nc2nc3c(c(N4c5ccccc5C[C@@H]4CO)n2)CN(C)CC3)cc1 [Example 13, (R)-(1-(6-Methyl-2-(4-(2-methyl-1H-imidazol-1-yl)phenylamino)-5,6,7,8-tetrahydropyrido[4,3-d]pyrimidin-4-yl)indolin-2-yl)methanol]	3160 nM
CCCN1CCc2nc(Nc3ccc(-c4cnco4)cc3)nc(N(CCO)c3ccccc3)c2C1 [Example 14, 2-((2-(4-(Oxazol-5-yl)phenylamino)-6-propyl-5,6,7,8-tetrahydropyrido[4,3-d]pyrimidin-4-yl)(phenyl)amino)ethanol]	126 nM
CCC(=O)N1CCc2nc(Nc3ccc(-c4cnco4)cc3)nc(N(CCO)c3ccccc3)c2C1 [Example 15, 1-(4-((2-Hydroxyethyl)(phenyl)amino)-2-(4-(oxazol-5-yl)phenylamino)-7,8-dihydropyrido[4,3-d]pyrimidin-6(5H)-yl)propan-1-one]	398 nM
O=C(C1CC1)N1CCc2nc(Nc3ccc(-c4cnco4)cc3)nc(N(CCO)c3ccccc3)c2C1 [Example 16, Cyclopropyl(4-((2-hydroxyethyl)(phenyl)amino)-2-(4-(oxazol-5-yl)phenylamino)-7,8-dihydropyrido[4,3-d]pyrimidin-6(5H)-yl)methanone]	631 nM
CN(C)CC(=O)N1CCc2nc(Nc3ccc(-c4cnco4)cc3)nc(N(CCO)c3ccccc3)c2C1 [Example 17, 2-(Dimethylamino)-1-(4-((2-hydroxyethyl)(phenyl)amino)-2-(4-(oxazol-5-yl)phenylamino)-7,8-dihydropyrido[4,3-d]pyrimidin-6(5H)-yl)ethanone]	1580 nM
COCC(=O)N1CCc2nc(Nc3ccc(-c4cnco4)cc3)nc(N(CCO)c3ccccc3)c2C1 [Example 18, 1-(4-((2-Hydroxyethyl)(phenyl)amino)-2-(4-(oxazol-5-yl)phenylamino)-7,8-dihydropyrido[4,3-d]pyrimidin-6(5H)-yl)-2-methoxyethanone]	2510 nM
O=C(CO)N1CCc2nc(Nc3ccc(-c4cnco4)cc3)nc(N(CCO)c3ccccc3)c2C1 [Example 19, 2-Hydroxy-1-(4-((2-hydroxyethyl)(phenyl)amino)-2-(4-(oxazol-5-yl)phenylamino)-7,8-dihydropyrido[4,3-d]pyrimidin-6(5H)-yl)ethanone]	794 nM
C[C@H](O)C(=O)N1CCc2nc(Nc3ccc(-c4cnco4)cc3)nc(N(CCO)c3ccccc3)c2C1 [Example 20, (S)-2-Hydroxy-1-(4-((2-hydroxyethyl)(phenyl)amino)-2-(4-(oxazol-5-yl)phenylamino)-7,8-dihydropyrido[4,3-d]pyrimidin-6(5H)-yl)propan-1-one]	1000 nM
CS(=O)(=O)N1CCc2nc(Nc3ccc(-c4cnco4)cc3)nc(N(CCO)c3ccccc3)c2C1 [Example 21, 2-((6-(Methylsulfonyl)-2-(4-(oxazol-5-yl)phenylamino)-5,6,7,8-tetrahydropyrido[4,3-d]pyrimidin-4-yl)(phenyl)amino)ethanol]	1260 nM
CCS(=O)(=O)N1CCc2nc(Nc3ccc(-c4cnco4)cc3)nc(N(CCO)c3ccccc3)c2C1 [Example 22, 2-((6-(Ethylsulfonyl)-2-(4-(oxazol-5-yl)phenylamino)-5,6,7,8-tetrahydropyrido[4,3-d]pyrimidin-4-yl)(phenyl)amino)ethanol]	398 nM
COC(=O)N1CCc2nc(Nc3ccc(-c4cnco4)cc3)nc(N(CCO)c3ccccc3)c2C1 [Example 23, Methyl 4-((2-hydroxyethyl)(phenyl)amino)-2-(4-(oxazol-5-yl)phenylamino)-7,8-dihydropyrido[4,3-d]pyrimidine-6(5H)-carboxylate]	6310 nM
CCOC(=O)N1CCc2nc(Nc3ccc(-c4cnco4)cc3)nc(N(CCO)c3ccccc3)c2C1 [Example 24, Ethyl 4-((2-hydroxyethyl)(phenyl)amino)-2-(4-(oxazol-5-yl)phenylamino)-7,8-dihydropyrido[4,3-d]pyrimidine-6(5H)-carboxylate]	251 nM
CN(C)C(=O)N1CCc2nc(Nc3ccc(-c4cnco4)cc3)nc(N(CCO)c3ccccc3)c2C1 [Example 25, 4-((2-Hydroxyethyl)(phenyl)amino)-N,N-dimethyl-2-(4-(oxazol-5-yl)phenylamino)-7,8-dihydropyrido[4,3-d]pyrimidine-6(5H)-carboxamide]	794 nM
CC(=O)N1CCc2nc(Nc3ccc(-c4cnco4)cc3)nc(NC3CCCCC3)c2C1 [Example 26, 1-(4-(Cyclohexylamino)-2-(4-(oxazol-5-yl)phenylamino)-7,8-dihydropyrido[4,3-d]pyrimidin-6(5H)-yl)ethanone]	126 nM
CC(=O)N1CCc2nc(Nc3ccc(-c4cnco4)cc3)nc(NC[C@@H]3CCCO3)c2C1 [Example 27, (S)-1-(2-(4-(Oxazol-5-yl)phenylamino)-4-((tetrahydrofuran-2-yl)methylamino)-7,8-dihydropyrido[4,3-d]pyrimidin-6(5H)-yl)ethanone]	316 nM
